# Test results reported in patent US20260183281A1, “PHARMACEUTICAL COMPOSITION COMPRISING A PRMT5 INHIBITOR AND AN EGFR INHIBITOR” (APEIRON THERAPEUTICS (HONG KONG) LTD., priority 2024, published 2026).
# How the values were obtained:
# [1] = tested on: human lung cancer PDX model LD1-0025-200729; assay: In vivo pharmacodynamic study in PDX NU/NU mouse model of Osimertinib-resistant non-small cell lung cancer; set-up: species or system NU/NU mice; conditions: for Tumor volume (mm^3) Mean: each drug 10 mg/kg PO QD; for tumor growth inhibition (TGI) / statistical difference compared with the control group: each drug 10 mg/kg, PO, once daily; for tumor growth inhibition (TGI): 56-day study; for statistical difference compared with the control group: one-way ANOVA
# From the text: NU/NU mice, female, 6-8 weeks old, weighing approximately 18-22 g. They were purchased from Beijing Vital River Laboratory Animal Technology Co., Ltd. All experimental mice were kept in the SPF-level animal room of Xi'an LIDE and acclimated for at least 3 days in advance. The lung cancer model tumor-bearing mice were chosen. When a tumor grew to 800-1000 mm^3, the tumor was taken out under sterile conditions and passed it subcutaneously into NU/NU mice. When the average tumor volume reached about 150 mm^3 (100-200 mm^3), 18 tumor-bearing mice were chosen and randomly divided into 6 groups according to the tumor volume. The day of grouping was Day 0, and they were administered according to the following solution:
# N: Number of animals; dose volume: 10 μL/g; PO: per os. Administer Osimertinib or Osimertinib solvent first, and administer compound A or compound A solvent after an interval of 1 hour.
# The main purpose was to detect the growth inhibition effect or complete cure ability of the test drug compound A as a single drug or in combination with Osimertinib on the human lung cancer PDX model LD1-0025-200729.
# Tumor volume and weight measurement of tumor-bearing mice: A vernier caliper was used to measure twice a week. The calculation equation for tumor volume is V=0.5 a×b^2, where a and b represent the major and minor diameters of the tumor, respectively;
# Tumor growth inhibition: TGI (%)=[1−(Ti−T0)/(Vi−V0)]×100
# Ti is the mean tumor volume after the start of administration in the compound group, T0 is the mean tumor volume at the first dose in the compound group, V0 is the mean tumor volume at the first dose in the vehicle control group, and Vi is the mean tumor volume after the start of administration in the vehicle control group.
# [2] = tested on: NCI-H292 MTAP deleted cells; assay: Cell growth inhibition (CellTiter-Glo, 144 h), single agents and combinations, CI by Calcusyn; type: cell-based; conditions: for IC20 / IC50: Homo sapiens, NCI-H292, single agent; for Max Inh %: single agent
# Method: NCI-H292 MTAP deleted cell line was purchased from Nanjing Cobioer Biotechnology Co., Ltd. The cells were cultured in a cell culture medium containing 90% RPMI1640 and 10% fetal bovine serum at 37° C. and 5% CO2. Experiments could only be performed on cells in the logarithmic growth phase.
# Adjust the cell density in complete medium and seed the cells into 96-well culture plates. Incubate the plates at 37° C. with 5% CO2. Add the two test compounds to the plates using a serial dilution scheme. Continue incubation at 37° C. and 5% CO2 for 144 h. Thaw the CellTiter-Glo (CTG) reagent and equilibrate the plates to room temperature for ˜30 min. Add an equal volume of CTG reagent to each well, shake on an orbital shaker for 5 min to lyse the cells, and allow the signal to stabilize at room temperature for 20 min. Measure luminescence on a plate reader and record the data. Data analysis:
# Cell growth inhibition (%)=100−(Lum test drug−Lum culture medium control)/(Lum solvent control−Lum culture medium control)×100%
# Calcusyn was used to analyze the combination index (CI) values.
# [3] = administration time 0 days (grouping)
SMILES,"Tumor volume (mm^3) Mean [1, 3] [mm^3]",Tumor volume (mm^3) Mean ([1]; administration time 4 days) [mm^3],Tumor volume (mm^3) Mean ([1]; administration time 7 days) [mm^3],Tumor volume (mm^3) Mean ([1]; administration time 11 days) [mm^3],Tumor volume (mm^3) Mean ([1]; administration time 14 days) [mm^3],Tumor volume (mm^3) Mean ([1]; administration time 18 days) [mm^3],Tumor volume (mm^3) Mean ([1]; administration time 21 days) [mm^3],Tumor volume (mm^3) Mean ([1]; administration time 25 days) [mm^3],Tumor volume (mm^3) Mean ([1]; administration time 28 days) [mm^3],Tumor volume (mm^3) Mean ([1]; administration time 32 days) [mm^3],Tumor volume (mm^3) Mean ([1]; administration time 35 days) [mm^3],Tumor volume (mm^3) Mean ([1]; administration time 39 days) [mm^3],Tumor volume (mm^3) Mean ([1]; administration time 42 days) [mm^3],Tumor volume (mm^3) Mean ([1]; administration time 46 days) [mm^3],Tumor volume (mm^3) Mean ([1]; administration time 49 days) [mm^3],Tumor volume (mm^3) Mean ([1]; administration time 53 days) [mm^3],Tumor volume (mm^3) Mean ([1]; administration time 56 days) [mm^3],IC20 [2] [nM],IC50 [2] [nM],Max Inh % [2] [%],other results
"CN(C(=O)c1ccc2nc(N)c3cncn3c2c1)[C@@H]1COc2cc(C(F)(F)F)ccc21 [Compound A, (S)-4-amino-N-methyl-N-(6-(trifluoromethyl)-2,3-dihydrobenzofuran-3-yl)imidazo[1,5-a]quinoxaline-8-carboxamide]",155.2,179.8,205.2,228.6,251.0,274.5,271.3,315.2,321.2,318.3,308.3,288.3,266.9,278.7,281.0,283.7,287.7,10.7,117,71.2,"Tumor volume (mm^3) Mean ([1]; administration time 57 days): 288.1 mm^3; tumor growth inhibition (TGI) [1]: 85.8%; statistical difference compared with the control group [1]: statistically significant difference; TGI (%) ([2]; Compound A 3.20 nM, Osimertinib 0 nM): 11.4%; TGI (%) ([2]; Compound A 16.0 nM, Osimertinib 0 nM): 10.8%; TGI (%) ([2]; Compound A 80.0 nM, Osimertinib 0 nM): 45.6%; TGI (%) ([2]; Compound A 400 nM, Osimertinib 0 nM): 51.8%; TGI (%) ([2]; Compound A 2000 nM, Osimertinib 0 nM): 66.6%; TGI (%) ([2]; Compound A 10000 nM, Osimertinib 0 nM): 75.1%"
"C=CC(=O)Nc1cc(Nc2nccc(-c3cn(C)c4ccccc34)n2)c(OC)cc1N(C)CCN(C)C [Osimertinib, reference compound]",155.7,185.9,208.3,232.2,253.6,288.4,310.4,369.2,407.1,439.2,470.2,501.3,534.5,589.4,605.3,633.7,679.4,18.6,50.2,91.1,"Tumor volume (mm^3) Mean ([1]; administration time 57 days): 689.6 mm^3; tumor growth inhibition (TGI) [1]: 43.1%; statistical difference compared with the control group [1]: no statistically significant difference; TGI (%) ([2]; Osimertinib 4 nM, Compound A 0 nM): 16.0%; TGI (%) ([2]; Osimertinib 4.1 nM, Compound C 0 nM): 20.5%; TGI (%) ([2]; Osimertinib 12 nM, Compound A 0 nM): 13.4%; TGI (%) ([2]; Osimertinib 12.3 nM, Compound C 0 nM): 18.8%; TGI (%) ([2]; Osimertinib 37 nM, Compound A 0 nM): 35.4%; TGI (%) ([2]; Osimertinib 37.0 nM, Compound C 0 nM): 34.3%; TGI (%) ([2]; Osimertinib 111 nM, Compound A 0 nM): 70.6%; TGI (%) ([2]; Osimertinib 111.1 nM, Compound C 0 nM): 68.4%; TGI (%) ([2]; Osimertinib 333 nM, Compound A 0 nM): 81.8%; TGI (%) ([2]; Osimertinib 333.3 nM, Compound C 0 nM): 81.4%; TGI (%) ([2]; Osimertinib 1000 nM, Compound A 0 nM): 90.9%; TGI (%) ([2]; Osimertinib 1000.0 nM, Compound C 0 nM): 92.3%"
C[C@H](c1ccc(C(F)(F)F)cn1)N(C(=O)c1cc2c(cc1F)nc(N)c1cncn12)C1CC1 [Compound C],,,,,,,,,,,,,,,,,,9.6,49.9,64.6,"TGI (%) ([2]; Compound C 3.20 nM, Osimertinib 0.0 nM): 4.0%; TGI (%) ([2]; Compound C 16.0 nM, Osimertinib 0.0 nM): 23.7%; TGI (%) ([2]; Compound C 80.0 nM, Osimertinib 0.0 nM): 38.2%; TGI (%) ([2]; Compound C 400 nM, Osimertinib 0.0 nM): 49.5%; TGI (%) ([2]; Compound C 2000 nM, Osimertinib 0.0 nM): 61.0%; TGI (%) ([2]; Compound C 10000 nM, Osimertinib 0.0 nM): 60.4%"
